We go through four compounds from patent US11142543B2 (priority 2016, dated 2021).

Marks after values point to notes of the source that are not given here.

The subject of data set [1] is ICR mice. Briefly: Forced swimming test (FST), Example 38. The format is in vivo. The settings on record: gavage 10 mg/Kg for 6 days, t-test. From the text:
Forced swimming test (FST) to investigate the antidepressant activity of some compounds and some natural products of the present invention
(§1) Male ICR mice (body weight, 20±2 g) used in the experiment were purchased from the Experimental Animal Center of Shanghai Institute of Materia Medica, Chinese Academy of Sciences. They were free access to water and kept at room temperature (23 2) ° C. in natural light. All mice were randomly divided into a blank control group and a test group, with 10 mice in each group and 5 mice/cage. The experiment was started after 3 days of adaptation in the breeding environment. The mice were fasted for 12 hours before the experiment but free access to water. The specific administration method was gavage administration, and the administration dose of the administration group was 10 mg/Kg, and the blank control group was given an equal volume of 0.5% CMC-Na.
Specific procedures: The mice were continuously administered for 6 days, and tested 1 hour after the last administration. Firstly, the spontaneous activity of the mice was measured by the open field method, that is, the mice were individually placed in a cylindrical glass jar for 4 minutes, and the number of lifting arms within the last two minutes was recorded. The mice were then individually placed in a cylindrical glass jar (20 cm high and 14 cm in diameter) with a water depth of 10 cm and a water temperature of 23° C. to 25° C. After mice entered into water, a 6-minute timing was conducted, the cumulative immobility time (the criteria for determining immobility: the mice stopped struggling in the water, or floated with only small limb movements to keep the head float on the water) within the last four minutes was recorded. Each group of mice was operated in parallel.
Experimental data processing: The experimental results were expressed as mean standard error (x SD). Statistical analysis was performed using t-test to determine whether it was significant. […] Then, the t-test was performed on the experimental index of forced swimming to determine whether it had antidepressant effect.

Data set [2] relates to ICR mice. Briefly: Toxicity observed during antidepressant efficacy screening (FST and TST animal batch). The settings on record: same animal batch as efficacy screening, gavage 10 mg/Kg. It counts as in vivo.
Excerpt: as §1
Male ICR mice (body weight, 20±2 g) used in the experiment were purchased from the Experimental Animal Center of Shanghai Institute of Materia Medica, Chinese Academy of Sciences. They were free access to water and kept at room temperature (23 2) ° C. in natural light. All mice were randomly divided into a blank control group and a test group, with 10 mice in each group and 5 mice/cage. The experiment was started after 3 days of adaptation in the breeding environment. The mice were fasted for 12 hours before the experiment but free access to water. […]

For data set [3], the system named is ICR mice. Briefly: Tail suspension test (TST), Example 39. It counts as in vivo. The settings on record: gavage 10 mg/Kg for 6 days, t-test.
Excerpt: Tail Suspension Test (TST) to Investigate the Antidepressant Activity of Some Compounds and Some Natural Products of the Present Invention
as §1, with “dose” for “dose of the administration group”
Specific procedures: The mice were continuously administered for 6 days, and tested 1 hour after the last administration. Firstly, the spontaneous activity of the mice was measured by the open field method, that is, the mice were individually placed in a cylindrical glass jar for 4 minutes, and the number of lifting arms within the last 2 minutes was recorded. Then the tail of the mice was stick onto the horizontal bar by the tape at 2 cm from the tip of the tail, and the animal eyesight was separated by the surrounding plates. The horizontal bar was about 25 cm from the ground, so that the mouse was about 10 cm from the ground, and the timing was 6 min. The cumulative immobility time within the last 4 minutes was recorded. Each group of mice was operated in parallel.
Experimental data processing: The experimental results were expressed as mean standard error (x SD). Statistical analysis was performed using t-test to determine whether it was significant. […] Then, the t-test was performed on the experimental index of tail suspension test to determine whether it had antidepressant effect.

Data set [4] has as its system mice. Put plainly: Tail suspension test in mouse model, compound C-11 versus fluoxetine, Example 40. The settings on record: FIG. 2. It counts as in vivo. The method, then: On the day of the behavioral test, animals were dosed twice and administered orally 4 h and 1 h before the behavioral test. During the experiment, the tail of the mouse was hung on a tail suspension test stand about 15 cm away from the ground with a tape or a clip at about 1 cm away from the tail end. The mice struggled to overcome the abnormal posture, but appeared intermittent immobility after a period of activity showing disappointment state. The experimental time for each group was 6 minutes. Since most of the mice struggled actively for the first two minutes, the immobility time within the last four minutes was recorded.

In data set [5] the test system is C57 mice susceptible to social defeat by CD-1 aggressive mice. Briefly: Social defeated stress (SDS) model, Example 42. It counts as in vivo.
Procedure: Male CD-1 aged 4-6 months mice which had passed childbearing age were raised separately, allowed to eat freely and adapt to the environment for about one week. Male C57 mice (aged 8-20 weeks differently) were used to screen for aggressive CD-1 mice. The mice screened by C57 were placed directly in the cage of CD-1 for 3 minutes, and the latency period for CD-1 to start showing offensive was recorded, and then the mice screened by C57 were moved out. For each CD-1 mouse, the same C57 was used to screen it three times a day, and different C57-selected mice were selected every day for a total of three days of screening. […] After screening for CD-1 aggressive mice for modeling, each C57 test mouse was exposed to different CD-1 aggressive mice for 10 consecutive days, 10 minutes each day. […] After 10 minutes of contact, the test mice were isolated from the invaders. Test mice and aggressive mice were placed in adjacent sections of the same squirrel cage, separated by a porous transparent plastic baffle, allowing test mice to be exposed under a threatening chronic stress stimulation for the next 24 hours. The control mice were placed in cages having the same structure, but the other side of the baffle was placed with other mice of the same line that were replaced daily. After 24 hours after the end of the last day of the experiment, we evaluated CSDS-induced social behavioral changes and selected all susceptible mice based on previous reports. The social interaction ratio (SI ratio) was calculated according to the following formula: SI ratio=time for the mouse in the interaction area when the aggressor exists/time for the mouse in the interaction area when the aggressor is absent. […] All selected test mice and control mice were then housed individually for 3 weeks. […] The mice in the vehicle group were administered by gavage with 0.5% CMC-Na every day. The SI ratio was assessed once a week.
Two-way ANOVA was used to analyze and LSD method was used for the multiple comparisons of calibration results. The data were expressed in Mean sem. […]
For data set [6], the system named is rats. Briefly: Forced swimming test in rat model, compound C-11 versus fluoxetine, Example 41. The format is in vivo. The settings on record: for effect on immobility time of rats in forced swimming test / effect on wall climbing behavior / wall climbing time of rats in forced swimming test / effect on wall climbing behavior of rats in forced swimming test: vs vehicle group. The method, then:
(§2) The rats were placed in a cylindrical jar 24 hours before administration to accommodate the underwater environment for 15 min. On the day of the behavioral test, animals were administered twice and administered orally 4 h and 1 h before the behavioral test. The rats were individually placed in a cylindrical glass jar, timed for 6 minutes, and the number of arm lift was recorded within the last 2 minutes. The rats were then placed in a cylindrical glass jar having 30 cm high and 20 cm in diameter. […] Water temperature was 23° C.-25° C.

In data set [7] the test system is mice. Briefly: Forced swimming test in mouse model, compound C-11 versus fluoxetine, Example 40. It counts as in vivo. The settings on record: FIG. 1. The protocol: as §2, with “The mice were placed” for “The rats were placed”, “test. The mice were individually” for “test. The rats were individually”, “minutes. The mice were then” for “minutes. The rats were then”, “C.-25° C. After the mice entered into the water, a 6-minute video was taken. […] Each group of mice was operated in parallel.” for “C.-25° C.”

In data set [8] the test system is rats. Put plainly: Tail suspension test in rat model, compound C-11 versus fluoxetine, Example 41. It counts as in vivo. The settings on record: for effect on cumulative immobility time of rats in tail suspension test: vs vehicle group. The protocol:
On the day of the behavioral test, animals were dosed twice and administered orally 4 h and 1 h before the behavioral test. During the experiment, the tail of the rat was hung on a tail suspension test stand about 15 cm away from the ground with a tape or a clip at about 1 cm away from the tail end. […] The experimental time for each group was 6 minutes.

Data set [9] relates to ICR mice with ethanol-induced memory reproduction disorder. The protocol: Learning memory is an advanced function of the human and animal brains.
Before the retesting after training, the ethanol solution was administered to the mouse to block the memory reproduction process of the animal, resulting in memory reproduction disorder.
Male ICR mice, 16-18 g, were purchased from Shanghai Sippr-BK laboratory animal Co. Ltd.
40 male mice were randomly divided into 4 groups by Excel, and each group contained 10 animals. The mice in group 1 (blank group) and mice in group 2 (model group) were orally administered (i.g.) with drinking water daily.
After 3 weeks of administration, 1 hour after the last administration, the exercise was performed once in the dark avoidance method. The mice were placed in a dark avoidance box, and placed in the bright room with the back facing the hole. At the same time, the video analysis device was activated, and the animal passed through the hole into the dark room and received an electric shock, and the timing was automatically stopped. The mice were removed and the screen analysis would record the time required for each mouse to experience an electric shock from the bright room to the dark room, which was the latency period. After 24 h, the test was carried out, and 45% ethanol solution (0.1 ml/10 g) was orally administered 30 min before the test. The video analysis system would automatically record all relevant data of the animal. Data were expressed as mean standard deviation (x±s), and data difference statistics were analyzed by one-way variance (ANOVA) or X^2 test. The difference between groups was judged by P<0.05.

The nature of data set [10]: in vivo. The settings on record: male, SD, rat.
Procedure: The healthy male SD rats (about 270 g) were fasted for 10 h before administration, and were free to drink water. […] The time points of blood collection from the eye socket were 30 min, 1 h, 2 h, 4 h, 6 h, 8 h, 10 h, 24 h, 48 h after the administration (n=5). […] The time points of blood collection from the eye socket were 5 min, 10 min, 30 min, 1 h, 2 h, 4 h, 8 h (n=4). The plasma was placed in a heparin-coated centrifuge tube, centrifuged for 10 min (8000 r), and the supernatant was taken and stored in a −80° C. refrigerator. After acetonitrile precipitation treatment, it was detected by HPLC-QQQ. The pharmacokinetic parameters, PK parameters of each mouse were calculated by a non-compartmental model of WinNonlin (Pharsight 6.2, NC, USA). All parameters were represented with Mean S.D. Bioavailability (F)=(AUCOral/DoseOral)/(AUCtail vein/Dosetail vein)
Where [11] appears, read: mice, oral 4 h and 1 h before the test, vs blank group.
Where [12] appears, read: rats, oral 4 h and 1 h before the test, dose not given.
The mark [13] stands for this setting: i.g. once a day for three consecutive weeks, donepezil 1.6 mg/kg, C-49 15 mg/kg, n = 10.

`C[C@H]1CC[C@@]2(OC1)O[C@H]1C[C@H]3[C@@H]4CC[C@@H]5C[C@@H](NC(=O)NC6CCCCC6)CC[C@]5(C)[C@H]4CC[C@]3(C)[C@H]1[C@@H]2C` [compound C-12]: the “effect on immobility time of mice in forced swimming test compared with the blank group (in words)” value in [1] is recorded as “significant antidepressant activity”. Moreover, the toxicity observed result in data set [2] is given as “No significant toxicity was observed”. In [3], the “effect on immobility time of mouse in tail suspension test compared with the blank group (in words)” value was “significant antidepressant activity”.

As to `C[C@H]1CC[C@@]2(OC1)O[C@H]1C[C@H]3[C@@H]4CC[C@@H]5C[C@H](NC(=O)NC6CCCCC6)CC[C@]5(C)[C@H]4CC[C@]3(C)[C@H]1[C@@H]2C` [compound C-11], in data set [1], the “effect on immobility time of mice in forced swimming test compared with the blank group (in words)” value is recorded as “extremely significant antidepressant activity”. In data set [2], the toxicity observed entry is “No significant toxicity was observed”. The “effect on immobility time of mouse in tail suspension test compared with the blank group (in words)” value in [3] was “extremely significant antidepressant activity”. The “effect on cumulative immobility time of the mouse in tail suspension test (in words)” value in data set [4] (setting [11]) is reported as “significantly reduced the cumulative immobility time”. The “effective dose compared with fluoxetine” value in [4] (mouse tail suspension test) was “only half of that of fluoxetine”; in data set [6] (rat forced swimming test, FIG. 3) it was “significantly lower than that of the positive drug fluoxetine”; in data set [7] (mouse forced swimming test), “only half of that of fluoxetine”; in [8] (rat tail suspension test, FIG. 4) it was “significantly lower than that of the positive drug fluoxetine”. Also, the “duration of oral administration that effectively alleviates depressive symptoms” value in data set [5] (10 mg/kg gavage every day) is on record as 1-2 weeks. The “effect on immobility time of rats in forced swimming test” value was “significantly reduce the immobility time” in [6] (dose 1.73 mg/kg oral, FIG. 3) and “significantly reduce the immobility time” in [6] (dose 3.46 mg/kg oral, FIG. 3). Also, in data set [6] (dose 3.46 mg/kg oral, FIG. 3), the “effect on wall climbing behavior / wall climbing time of rats in forced swimming test” value is “significantly increases the wall climbing time”. Besides, the “effect on cumulative immobility time of rats in the forced swimming test (in words)” value in [6] (setting [12]) is “significantly reduced the cumulative immobility time”. Further, the “effect on cumulative immobility time of mice in the forced swimming test (in words)” value in data set [7] (setting [11]) is given as “significantly reduced the cumulative immobility time”. In addition, the “effect on cumulative immobility time of rats in tail suspension test” value in data set [8] (dose 3.46 mg/kg oral, FIG. 4) was “significantly reduce the cumulative immobility time”. For the same compound, in data set [8] (setting [12]), the “effect on immobility time of rats in tail suspension test (in words)” value was “significantly reduced the immobility time”.

Broadly, the bioavailability is dose-corrected exposure relative to a reference, in per cent. Read a high bioavailability as good availability. By AUC is commonly meant the area under the concentration-time curve, a measure of exposure. Low readings indicate less exposure, high ones more exposure. The Cmax is the highest concentration seen after dosing. The term Tmax denotes the time from dosing to the highest level. A word on the MRT: it is a mean duration of stay, worked out from the concentration-time curve. As a reminder, the half-life is how long it takes for the measured level to halve. Higher therefore signals slow loss. As for `C[C@H]1CC[C@@]2(OC1)O[C@H]1C[C@H]3[C@@H]4CC[C@@H]5C[C@H](NC(=O)N(CCNC(=O)CN(C)C)C6CCCCC6)CC[C@]5(C)[C@H]4CC[C@]3(C)[C@H]1[C@@H]2C` [compound C-49], the “effect on immobility time of mice in forced swimming test compared with the blank group (in words)” value in data set [1] is reported as “significantly reduced the time immobility”. Besides, the “effect on immobility time of mouse in tail suspension test compared with the blank group (in words)” value in data set [3] was “significantly reduce the immobility time”. Further, in data set [9] (15 mg/kg, three weeks, mice with memory reproduction disorder induced by ethanol), the “improvement effect on learning and memory (in words)” value is “significant improvement effect”. For the same compound, in [9] (setting [13]), the “Number of shocked animals” value is given as 3* and the “Total number of errors (within 5 min)” value was 3**. Besides, the “Latency period from an open room to a dark room” value in data set [9] (i.g. once a day for three consecutive weeks, donepezil 1.6 mg/kg, C-49 15 mg/kg, x ± s, n = 10) was determined as 215.8 ± 135.8 s. Also, in data set [10], the bioavailability came to 11.1%. In addition, in [10] (iv, 1 mg/kg), the AUC is 0.293 µg·h/mL, the peak concentration (Cmax) came out at 0.285 µg/mL and the Tmax turned out to be 0.1 h. Further, in data set [10] (po, 100 mg/kg), the area under the curve (AUC) was 3.12 µg·h/mL, the Cmax came to 0.251 µg/mL and the Tmax was determined as 2.8 ± 1.1 h. The compound also returned a mean residence time (MRT) in [10] (po, 100 mg/kg, MRT) of 13.6 h. Moreover, the half-life in data set [10] (po, 100 mg/kg, T1/2) is 9.7 h.

As for `CNCCC(Oc1ccc(C(F)(F)F)cc1)c1ccccc1` (stereo not drawn) [fluoxetine], in [5] (FIG. 5A, C-11 10 mg/kg gavage every day, fluoxetine 10 mg/kg intraperitoneally every day, 3 weeks), the mouse social time result is listed as “did not work during the third week of administration”. Moreover, the “social proportion of mice (SI ratio)” value in data set [5] (FIG. 5B, C-11 10 mg/kg gavage every day, fluoxetine 10 mg/kg intraperitoneally every day, 3 weeks) is reported as “not effective after three weeks of administration”. Besides, the “effect on immobility time of rats in forced swimming test” value was “had no effect” in [6] (dose 1.73 mg/kg oral, FIG. 3); “had no effect” in [6] (dose 3.46 mg/kg oral, FIG. 3); “significantly affect” in data set [6] (dose 6.92 mg/kg oral, FIG. 3). For the same compound, the “effect on wall climbing behavior of rats in forced swimming test” value in [6] (dose 1.73 mg/kg oral, FIG. 3) is reported as “had no effect”; in data set [6] (dose 6.92 mg/kg oral, FIG. 3), “significantly affect”. Moreover, the “effect on wall climbing behavior / wall climbing time of rats in forced swimming test” value in data set [6] (dose 3.46 mg/kg oral, FIG. 3) was “had no effect”. Also, the “effect on cumulative immobility time of rats in tail suspension test” value is “had no effect” in [8] (dose 1.73 mg/kg oral, FIG. 4); “had no effect” in [8] (dose 3.46 mg/kg oral, FIG. 4); “significantly affect the cumulative immobility time” in data set [8] (dose 6.92 mg/kg oral, FIG. 4).
